What all share (assay): growth of human tumour cells (NCI), 48 h
The subject of test [1] is MOLT-4.
The test system of test [2] is SK-MEL-2.
The test system of test [3] is EKVX.
The subject of test [4] is SF-268.
The test system of test [5] is IGROV-1.
The subject of test [6] is MCF7.
The test system of test [7] is MDA-MB-231.
For test [8], the system named is CAKI-1.
The subject of test [9] is NCI-H522.
Test [10] relates to SK-OV-3.
Test [11] deals with Hs-578T.
The test system of test [12] is SK-MEL-28.
Test [13] has as its system SW-620.
The test system of test [14] is HCC 2998.
The test system of test [15] is K562.
In test [16] the test system is OVCAR-5.
The subject of test [17] is COLO 205.
For test [18], the system named is HOP-92.
In test [19] the test system is NCI-H23.
Test [20] has as its system OVCAR-4.

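Dose response: 5 concentrations. Exposure: 48 h. Format: 96-well plates. Endpoint: linear interpolation; highest concentration if not reached. GI50 is the concentration that inhibits growth by half.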 Active and inactive are the calls of the source. Rule as the data show it: active = GI50 up to about 1.1 µM and inactive = higher.

Turning to `Cn1ccnc1Sc1ccc(/C=N\NC(=O)c2cccc(F)c2)cc1[N+](=O)[O-]`, the GI50 is > 100 µM (inactive) in test [1]; 30.8 µM (inactive) in [2]; 45.1 µM (inactive) in test [3]; 24 µM (inactive) in test [4]; 18.8 µM (inactive) in test [5]; 27.8 µM (inactive) in test [6]. For the same compound, the GI50 in test [7] is 80.2 µM (inactive); in [8] it was > 100 µM (inactive); in [9], 24.7 µM (inactive); in [10] it was 33.5 µM (inactive); in [11], 24.2 µM (inactive); in test [12], 79.4 µM (inactive). Moreover, the GI50 in test [13] was > 100 µM (inactive); in [14] it was > 100 µM (inactive); in test [15], > 100 µM (inactive); in test [16] it was > 100 µM (inactive); in test [17], > 100 µM (inactive); in [18], 22.7 µM (inactive). The values for the GI50 in [19] and in test [20] were 47.2 µM (inactive) and 25.3 µM (inactive), respectively.

`CN1C(=O)C(=CNc2ccc(Cl)cc2Cl)C(=O)N(C)C1=O`: the GI50 in [1] was 66.5 µM (inactive); in test [2] it was > 100 µM (inactive); in test [3], > 100 µM (inactive); in test [4], > 100 µM (inactive); in [5], > 100 µM (inactive); in test [6], > 100 µM (inactive). In addition, the GI50 in test [7], in test [8], in [9], in test [10], in test [11] and in test [13] was > 100 µM (inactive) each time. Also, the GI50 in test [14], in [15], in test [16], in [17], in test [18] and in [19] was > 100 µM (inactive) throughout. Moreover, the GI50 in [20] is > 100 µM (inactive).

With `COC(=O)CCSC1=CC(=O)c2nc3ccccc3c3ccnc1c23`, the GI50 in test [1] is 9.95 µM (inactive); in test [2] it was 23.2 µM (inactive); in test [3], 18.9 µM (inactive); in test [4] it was 15.1 µM (inactive); in test [5] it was 16.7 µM (inactive); in test [6], 20.2 µM (inactive). Besides, the GI50 in [7] is 27.5 µM (inactive); in test [8], 18.8 µM (inactive); in test [9], 1.39 µM (inactive); in [10] it was 54.3 µM (inactive); in test [11] it was 23.4 µM (inactive); in [12], 21.9 µM (inactive). The GI50 in test [13] is 22.2 µM (inactive); in test [14], 14.3 µM (inactive); in test [15], 8.47 µM (inactive); in [16] it was 42.7 µM (inactive); in test [17], 13.6 µM (inactive); in [18] it was 25.7 µM (inactive). In addition, the GI50 was 15.6 µM (inactive) in test [19] and 19.8 µM (inactive) in [20].

Consider `COc1ccc(-c2[nH]c3c4c(nc5c(c24)C(=O)CC(C)(C)C5)CC(C)(C)C3)cc1`, for which the GI50 in test [1] is 7.03 µM (inactive); in test [2], 39.7 µM (inactive); in test [3], 47.3 µM (inactive); in test [4], 95.5 µM (inactive); in test [6], 58.3 µM (inactive); in test [7], 50.9 µM (inactive). In addition, the GI50 was 70.5 µM (inactive) in [8]; 54.5 µM (inactive) in test [9]; > 100 µM (inactive) in [10]; 93.1 µM (inactive) in test [11]; > 100 µM (inactive) in test [12]; > 100 µM (inactive) in test [13]. Besides, the GI50 in test [14] was 55.6 µM (inactive); in test [15], 28.4 µM (inactive); in test [16] it was > 100 µM (inactive); in test [17], 63.8 µM (inactive); in [18], 39.6 µM (inactive); in test [19] it was 76.2 µM (inactive). In [20], the GI50 was 68.5 µM (inactive).

For the compound `COc1cc(OCCN(C)C)c2[nH]c(C(=O)N3CC(CCl)c4c3cc(N)c3ccccc43)cc2c1` (stereo unspecified), the GI50 in test [2], in test [3], in [4], in test [5], in test [6] and in test [7] was < 0.01 µM (active) in each case. Also, the GI50 in test [8] is < 0.01 µM (active); in [9], < 0.01 µM (active); in [10], 0.0148 µM (active); in test [11], < 0.01 µM (active); in test [12], < 0.01 µM (active); in test [13], < 0.01 µM (active). The GI50 in test [14] was < 0.01 µM (active); in [16] it was < 0.01 µM (active); in [17], < 0.01 µM (active); in [18], < 0.01 µM (active); in [19], < 0.01 µM (active); in test [20] it was < 0.018 µM (active).

For `NS(=O)(=O)c1cc2c(cc1Cl)NC(Cc1ccccc1)NS2(=O)=O` (stereo unspecified) [BENZYLHYDROCHLOROTHIAZIDE], the GI50 is > 100 µM (inactive) in test [2]; > 100 µM (inactive) in test [3]; > 100 µM (inactive) in [4]; > 100 µM (inactive) in test [5]; 60.4 µM (inactive) in [6]; > 100 µM (inactive) in [7]. Moreover, the GI50 in test [8] is > 100 µM (inactive); in test [9] it was > 100 µM (inactive); in test [10], > 100 µM (inactive); in [11] it was > 100 µM (inactive); in test [12], > 100 µM (inactive); in [13], 41.7 µM (inactive). For the same compound, the GI50 in [14] was > 100 µM (inactive); in test [15] it was 63.1 µM (inactive); in [16], > 100 µM (inactive); in test [17], > 100 µM (inactive); in [18] it was > 100 µM (inactive); in test [19], > 100 µM (inactive). In test [20], the GI50 was > 100 µM (inactive).

In the case of `Cn1c(-c2cccs2)cc(-c2ccsc2)c1-c1ccsc1`, the GI50 is > 100 µM (inactive) in [1]; > 100 µM (inactive) in test [3]; > 100 µM (inactive) in test [4]; > 100 µM (inactive) in test [5]; 6.59 µM (inactive) in test [6]; > 100 µM (inactive) in test [7]. For the same compound, the GI50 in [8], in test [9], in [10], in test [11], in test [12] and in test [13] was > 100 µM (inactive) each time. Also, the GI50 in test [14] is > 100 µM (inactive); in test [15], > 100 µM (inactive); in test [16], > 100 µM (inactive); in test [17], > 100 µM (inactive); in test [18] it was > 100 µM (inactive); in test [19] it was 8.24 µM (inactive). Moreover, in [20], the GI50 is > 100 µM (inactive).

With `CCOC(=O)c1c(C)noc1/N=N/N(CCO)CCO`, the GI50 in [1] is 21 µM (inactive); in [3] it was 39.9 µM (inactive); in test [4], 54.3 µM (inactive); in [5], 36.6 µM (inactive); in [6], 29.1 µM (inactive); in [7], 38.9 µM (inactive). Moreover, the GI50 in [8] is 61 µM (inactive); in [9] it was 24.2 µM (inactive); in test [10] it was 57.4 µM (inactive); in [11], 63.4 µM (inactive); in [12], 49.1 µM (inactive); in test [13], 28.3 µM (inactive). Further, the GI50 in [14] is 22.3 µM (inactive); in test [15], 29 µM (inactive); in test [16], > 100 µM (inactive); in test [17] it was 23.1 µM (inactive); in [18], 24.9 µM (inactive); in test [19] it was 30.3 µM (inactive). The GI50 in test [20] is 30.2 µM (inactive).

For `COc1ccc(C2CC(c3c(O)ccc4ccccc34)=NN2C(C)=O)cc1OC` (stereo unspecified), the GI50 in test [1] is 19.3 µM (inactive); in test [2] it was 19.3 µM (inactive); in [4], 31.4 µM (inactive); in test [5], 38.7 µM (inactive); in [6] it was 23.7 µM (inactive); in [7], 18.5 µM (inactive). The GI50 was 36.5 µM (inactive) in test [8]; 31.7 µM (inactive) in test [9]; 57.8 µM (inactive) in test [10]; 36.9 µM (inactive) in [11]; 28.8 µM (inactive) in test [12]; 32.9 µM (inactive) in test [13]. Besides, the GI50 in test [14] is 23.7 µM (inactive); in test [15] it was 13.7 µM (inactive); in [16], 40.6 µM (inactive); in test [17], 17 µM (inactive); in test [18], 27.8 µM (inactive); in [19], 23.4 µM (inactive). Also, the GI50 in test [20] is 44.3 µM (inactive).

For the compound `COc1ccc2c(c1O)C13CCN(C)C(C2)C1CCC1(C3)OCCO1` (stereo unspecified), the GI50 in [1], in test [2], in test [3], in [4], in test [5] and in test [6] was > 100 µM (inactive) throughout. The GI50 in test [7], in [8], in [9], in test [10], in [11] and in [12] was > 100 µM (inactive) throughout. Besides, the GI50 in test [13], in test [14], in test [16], in [17], in [18] and in [19] was > 100 µM (inactive) each time. The GI50 in test [20] was > 100 µM (inactive).

(Values after ChEMBL document CHEMBL1201862, “PubChem BioAssay data set” (2004).)
